Measurements: patent US20250296953A1, “3,4-THIAZOLO-STEROIDS AND METHODS OF MAKING AND USING THE SAME” (Arkansas State University - Jonesboro, priority 2018, published 2025)
Read-outs that look alike come from different tables or passages of the source.

Legend:
SF-539 = experiment: NCI 60 one dose screen; format: cell-based, human; conditions: one dose; CNS Cancer; SF-539
NCI-H522 (NSCLC) = experiment: NCI 60 one dose screen; format: cell-based, human; conditions: Non-small Cell Lung Cancer
glioblastoma (SF-295) = experiment: NCI 60 five dose screen
[1] = system: 60 different human tumor cell lines; conditions: five dose
SF-295 = experiment: NCI 60 one dose screen; format: cell-based, human; conditions: one dose; CNS Cancer; SF-295

`C[C@]12CCc3sc(Nc4ccc(OC(F)(F)F)cc4)nc3C1=CC[C@@H]1[C@@H]2CC[C@]2(C)C(=O)CC[C@@H]12` [IIa.19, (1S,2R,13R,14S,18S)-2,18-dimethyl-7-[4-(trifluoromethoxy)anilino]-6-thia-8-azapentacyclo[11.7.0.02,10.05,9.014,18]icosa-5(9),7,10-trien-17-one] was tested, and the “Growth Percent” value (SF-539) was −5.40%, the “Growth Percent” value (NCI-H522 (NSCLC)) was 89.13% and the GI50 (glioblastoma (SF-295); Homo sapiens, SF-295) was 0.7 µM. For the same compound, the CC50 (glioblastoma (SF-295); Homo sapiens, SF-295, read-out: LC50) was 7.16 µM, the TGI (glioblastoma (SF-295); SF-295 (CNS Cancer), five dose) was 2.44E−6 and the TGI ([1]; A549/ATCC (Non-small Cell Lung Cancer)) was 1.61E−5. The TGI ([1]; CCRF-CEM (Leukemia)) was >1.00E−4, the TGI ([1]; COLO 205 (Colon Cancer)) was 6.76E−6 and the TGI ([1]; EKVX (Non-small Cell Lung Cancer)) was 1.74E−5. It also gave a TGI ([1]; HCC-2998 (Colon Cancer)) of 1.86E−5, a TGI ([1]; HCT-15 (Colon Cancer)) of 4.10E−6 and a TGI ([1]; HCT-116 (Colon Cancer)) of 2.78E6. It also gave a TGI ([1]; HL-60(TB) (Leukemia)) of 4.44E−6, a TGI ([1]; HOP-62 (Non-small Cell Lung Cancer)) of 4.19E−6 and a TGI ([1]; HOP-92 (Non-small Cell Lung Cancer)) of 3.44E−6. The TGI ([1]; HT29 (Colon Cancer)) was 1.09E−5, the TGI ([1]; K-562 (Leukemia)) was 6.64E−6 and the TGI ([1]; KM12 (Colon Cancer)) was 1.50E−5. It also gave a TGI ([1]; LOX IMVI (Melanoma)) of 3.18E−6, a TGI ([1]; MALME-3M (Melanoma)) of 1.68E−5 and a TGI ([1]; MOLT-4 (Leukemia)) of 1.19E−5. It also gave a TGI ([1]; NCI-H23 (Non-small Cell Lung Cancer)) of 2.17E−5, a TGI ([1]; NCI-H226 (Non-small Cell Lung Cancer)) of 4.41E−5 and a TGI ([1]; NCI-H322M (Non-small Cell Lung Cancer)) of 4.89E−5. It also gave a TGI ([1]; NCI-H460 (Non-small Cell Lung Cancer)) of 1.18E−5, a TGI ([1]; NCI-H522 (Non-small Cell Lung Cancer)) of 4.56E−6 and a TGI ([1]; SF-268 (CNS Cancer)) of 1.23E−5. For the same compound, the TGI ([1]; SNB-19 (CNS Cancer)) was 9.93E−6, the TGI ([1]; SNB-75 (CNS Cancer)) was 6.23E−6 and the TGI ([1]; SW-620 (Colon Cancer)) was 5.00E−6. For the same compound, the TGI ([1]; U251 (CNS Cancer)) was 3.26E−6 and the “Growth Percent” value (SF-295) was −2.71%.
